Measured values reported in US8974834B2, “Method for producing reservoir layer for hoof treatment and reservoir layer” (Ecolab USA Inc., priority 2010, dated 2015).

Columns and labels:
[1] = Chemical analysis of the precipitate (contents of glutaraldehyde and Texapon NSO; Al by XRF); assay type: physicochemical; settings: white precipitate from 50 ml solution (a) (31.5 weight % polyaluminium chloride, 7% glutaraldehyde) mixed with 10 g Texapon NSO
Description: (§1) 50 ml of an aqueous solution (a) containing approximately 31.5 weight % polyaluminium chloride (dialuminum chloride pentahydroxide), 7% glutaraldehyde was mixed with 10 g Texapon®NSO (C12-C14 alkyl ether sulfate with 2 mole EO). Before mixing the aluminium content of the aqueous solution (a) was about 9.5 weight %. […] The white precipitate was analyzed with respect to its contents of glutaraldehyde, Texapon®NSO. The content of polyaluminium chloride was analyzed by the content of Al-ions by XRF.

[2] = Formation of a precipitate on mixing a surfactant with aqueous polyaluminium chloride/glutaraldehyde solution; assay type: physicochemical; settings: mixed with aqueous solution (a) containing polyaluminium chloride and 7% glutaraldehyde
Description: as §1
50 ml of an aqueous solution (a) containing 10% polyaluminium chloride and 7% glutaraldehyde was mixed with 50 ml of an aqueous solution (b) containing 10 weight % dodecylbenzenesulphonic acid. Before mixing the aluminium content of the aqueous solution (a) was about 3 weight %.
50 ml of an aqueous solution (a) containing 10% polyaluminium chloride, 7% glutaraldehyde was mixed with 50 ml of an aqueous solution (b) containing 10 weight % N-alkyl(C12-C16)-N-benzyl-N,N-dimethylammonium chloride (Barquat®DM-50).

Structure (SMILES) | quantified values (content in the precipitate) [1] [%] | formation of a precipitate upon mixing [2]
O=CCCCC=O [glutaraldehyde] | 3.7 | 
CCCCCCCCCCCCc1ccc(S(=O)(=O)O)cc1 [dodecylbenzenesulphonic acid] |  | white solid immediately was formed
